# In US20250368624A1, “M24B AMINOPEPTIDASE INHIBITORS FOR CARD8 INFLAMMASOME ACTIVATION” (Memorial Sloan-Kettering Cancer Center, priority 2022, published 2025):
# Experiments:
# human resting T cells = experiment: GSDMD cleavage in human resting T cells; format: cell-based; details: 20 μM, 24 h
# Source text: Human primary cell isolation and culture. Isolated human primary cells were obtained from Astarte Biologics. All cells were >90% purity, as validated by flow cytometry by Astarte Biologics. T cells were thawed in RPMI-1640 medium supplemented with 10% FBS and cultured in RPMI-1640 medium, 10% fetal bovine serum (FBS), and 30 U/mL IL-2 (Peprotech).
# (§1) LDH cytotoxicity and immunoblotting assays. HEK293T cells were transiently transfected and treated with inhibitors as indicated. MV4;11, OCI AML2, THP-1, and RAW264.7 cells were plated in 12-well culture plates at 5×10^5 cells/well and treated as indicated. Supernatants were analyzed for LDH activity using the Pierce LDH Cytotoxicity Assay Kit (Life Technologies). LDH activity was quantified relative to a lysis control where cells were lysed in 80 μL of a 9% Triton X-100 solution. For immunoblotting, cells were washed 2× in PBS (pH=7.4), resuspended in PBS, and lysed by sonication. Protein concentrations were determined and normalized using the DCA Protein Assay kit (Bio-Rad). The samples were separated by SDS-PAGE, immunoblotted, and visualized using the Odyssey Imaging System (Li-Cor).
# [1] = system: primary bone marrow-derived macrophages (BMDMs) and mouse RAW264.7 cells; experiment: LDH release and GSDMD cleavage in BMDMs and RAW264.7 cells (mouse NLRP1); format: cell-based; details: VbP 10 μM, CQ31/CQ80 20 μM, 24 h
# Experimental: Mouse BMDM isolation and culture. Bone marrow was harvested from the femurs and tibias of 7-12-week-old C57BL/6J mice. Briefly, femurs and tibias were harvested from mice and crushed with a mortar and pestle in cold 1×PBS supplemented with 2.5% FBS. The mixture was passed through a 70-μm nylon cell strainer. RBCs were lysed for 4-5 min on ice in 1×RBC lysis buffer (Biolegend) and cells were centrifuged at 300×g for 5 min at 4° C. The cell pellet was washed in cold 1×PBS supplemented with 2.5% FBS before being passed again through in a 70-μm nylon cell strainer and counted. Counted cells were plated on non-tissue culture 10-cm plates at 5-10×10^6 cells per plate in DMEM supplemented with 10% FBS and 15-20% L-cell media. Cells were incubated at 37° C. for 6 days before replating and assaying as indicated.
# as §1
# [2] = system: MV4;11, OCI-AML2, and THP-1 cells; experiment: LDH release and GSDMD cleavage immunoblot; format: cell-based; details: WT vs CARD8-/- cells, 20 μM, 24 h
# Experimental: as §1
# MV4;11 WT cells = experiment: CellTiter-Glo cell viability, WT MV4;11 cells; format: cell-based; details: Homo sapiens, MV4-11; 24 h, CTG
# In short: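 Cells plated at 2,000 per well and treated with compound at varying concentrations for the indicated times. CytoTox-Fluor fluorescence read after 30 min, then CellTiter-Glo added (2 min shaking, 10 min at 25° C) and luminescence recorded.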
# recombinant human PEPD = recombinant human PEPD (Homo sapiens (Human), UniProt P12955); experiment: PEPD substrate assay (Ala-Pro cleavage, L-alanine assay kit); format: biochemical; details: for IC50: 50 nM recombinant human PEPD, Ala-Pro 40 μM, 25° C.
# XPNPEP1 = XPNPEP1 (Homo sapiens (Human), UniProt Q9NQW7); experiment: XPNPEP1 substrate assay (H-Lys(abz)-Pro-Pro-pNA); format: biochemical; details: for IC50: XPNPEP1 3.5 nM, substrate 100 μM, 60 mins
# Sequence of XPNPEP1 (Q9NQW7 whole entry): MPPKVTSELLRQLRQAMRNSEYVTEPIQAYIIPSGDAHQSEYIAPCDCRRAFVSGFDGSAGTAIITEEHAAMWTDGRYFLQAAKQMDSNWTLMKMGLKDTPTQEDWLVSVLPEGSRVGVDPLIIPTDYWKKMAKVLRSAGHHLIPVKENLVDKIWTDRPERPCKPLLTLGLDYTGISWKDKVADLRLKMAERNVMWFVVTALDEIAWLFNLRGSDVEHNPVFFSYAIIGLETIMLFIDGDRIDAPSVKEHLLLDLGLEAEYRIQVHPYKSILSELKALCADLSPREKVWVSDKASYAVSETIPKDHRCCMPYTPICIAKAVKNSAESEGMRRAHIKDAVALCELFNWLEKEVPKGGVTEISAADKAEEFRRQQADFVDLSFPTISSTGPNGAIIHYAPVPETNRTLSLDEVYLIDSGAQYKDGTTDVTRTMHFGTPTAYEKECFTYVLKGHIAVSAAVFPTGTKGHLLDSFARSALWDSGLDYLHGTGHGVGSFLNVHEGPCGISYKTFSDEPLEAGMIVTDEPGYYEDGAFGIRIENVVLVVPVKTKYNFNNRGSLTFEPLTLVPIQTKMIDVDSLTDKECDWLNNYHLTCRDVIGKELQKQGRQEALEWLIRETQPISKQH
# Sequence of recombinant human PEPD (P12955 whole entry): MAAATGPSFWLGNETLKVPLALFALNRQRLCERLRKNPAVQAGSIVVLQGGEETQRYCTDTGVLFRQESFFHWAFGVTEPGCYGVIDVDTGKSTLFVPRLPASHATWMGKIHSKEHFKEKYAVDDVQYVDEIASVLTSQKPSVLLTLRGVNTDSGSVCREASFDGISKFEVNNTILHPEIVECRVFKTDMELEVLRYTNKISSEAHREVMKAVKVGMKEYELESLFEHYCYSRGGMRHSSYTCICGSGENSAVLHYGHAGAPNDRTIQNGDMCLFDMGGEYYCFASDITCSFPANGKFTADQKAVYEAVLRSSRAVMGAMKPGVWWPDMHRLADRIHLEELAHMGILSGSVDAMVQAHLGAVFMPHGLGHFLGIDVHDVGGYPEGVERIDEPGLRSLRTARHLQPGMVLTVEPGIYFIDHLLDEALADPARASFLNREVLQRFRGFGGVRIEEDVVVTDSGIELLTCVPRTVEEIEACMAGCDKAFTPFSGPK
SMILES,GSDMD cleavage (human resting T cells),pyroptosis (LDH release and GSDMD cleavage) [1],LDH release and GSDMD cleavage [2],IC50 (MV4;11 WT cells) [µM],IC50 (recombinant human PEPD) [µM],IC50 (XPNPEP1) [µM],PEPD inhibition (in words) (recombinant human PEPD),XPNPEP1 inhibition (in words) (XPNPEP1)
"COC(=O)[C@H](CC(C)C)NC(=O)[C@@H]1CCCN1C(=O)[C@@H](O)[C@H](N)CC(C)C [CQ80, Methyl ((2S,3R)-3-amino-2-hydroxy-5-methylhexanoyl)-L-prolyl-L-leucinate]",induced GSDMD cleavage,only VbP induced pyroptosis,induced lactate dehydrogenase (LDH) release and GSDMD cleavage,0.27,0.91,43,–,–
COC(=O)[C@@H]1CCCN1C(=O)[C@@H](O)[C@H](N)CC(C)C [CQ31],induced GSDMD cleavage,only VbP induced pyroptosis,induced lactate dehydrogenase (LDH) release and GSDMD cleavage,3.8,0.67,122,inhibited PEPD and XPNPEP1 inhibitors similarly,inhibited PEPD and XPNPEP1 inhibitors similarly
